Assay results published in patent publication US8012956B2, “Tropane compounds” (Exelixis, Inc., priority 2007, dated 2011).

biological target: HSP90 (Homo sapiens, UniProt P07900); assay: HSP90 inhibition (HSP90 IC50); assay type: biochemical

Row | SMILES | IC50 [nM]
1 | COc1cc(CNC(=O)c2ccc(N3[C@@H]4CC[C@H]3C[C@@H](NC(=O)c3cccc(OC)c3C)C4)nc2)ccc1F [N-{[4-fluoro-3-(methyloxy)phenyl]methyl}-6-[3-endo-({[2-methyl-3-(methyloxy)phenyl]carbonyl}amino)-8-azabicyclo[3.2.1]oct-8-yl]pyridine-3-carboxamide] | 500 to 999
2 | CCCCNC(=O)c1ccc(N2[C@@H]3CC[C@H]2C[C@@H](NC(=O)c2cccc(OC)c2C)C3)nc1 [N-butyl-6-[3-endo-({[2-methyl-3-(methyloxy)phenyl]carbonyl}amino)-8-azabicyclo[3.2.1]oct-8-yl]pyridine-3-carboxamide] | 500 to 999
3 | NC(=O)c1ccc(N2[C@@H]3CC[C@H]2C[C@@H](NC(=O)c2ccc(CO)cc2)C3)nc1 [6-[3-endo-({[4-(hydroxymethyl)phenyl]carbonyl}amino)-8-azabicyclo[3.2.1]oct-8-yl]pyridine-3-carboxamide] | < 500
4 | COc1cccc(C(=O)N[C@H]2C[C@H]3CC[C@@H](C2)N3c2ccc(C(=O)NCc3ccc(C(F)(F)F)cc3)cn2)c1C [6-[3-endo-({[2-methyl-3-(methyloxy)phenyl]carbonyl}amino)-8-azabicyclo[3.2.1]oct-8-yl]-N-{[4-(trifluoromethyl)phenyl]methyl}pyridine-3-carboxamide] | 1000 to 2000
5 | Cc1cc(C(N)=O)c(N[C@H](C)C(C)(C)C)cc1C(=O)NC1CC2CCC(C1)N2c1ccc(C(=O)C2CC2)cn1 (stereo partly drawn) [N-{8-[5-(cyclopropylcarbonyl)pyridin-2-yl]-8-azabicyclo[3.2.1]oct-3-endo-yl}-2-methyl-5-{[(1R)-1,2,2-trimethylpropyl]amino}benzene-1,4-dicarboxamide] | < 500
6 | COc1cccc(C(=O)N[C@H]2C[C@H]3CC[C@@H](C2)N3c2ccc(C(=O)NCc3ccccc3F)cn2)c1C [N-[(2-fluorophenyl)methyl]-6-[3-endo-({[2-methyl-3-(methyloxy)phenyl]carbonyl}amino)-8-azabicyclo[3.2.1]oct-8-yl]pyridine-3-carboxamide] | < 500
7 | CC(C)[C@@H](C)Nc1cc(C(=O)NC2CC3CCC(C2)N3c2ccc(C(=O)C3CC3)cn2)c(Br)cc1C(N)=O (stereo partly drawn) [2-bromo-N-{8-[5-(cyclopropylcarbonyl)pyridin-2-yl]-8-azabicyclo[3.2.1]oct-3-endo-yl}-5-{[(1R)-1 2-dimethylpropyl]amino}benzene-1,4-dicarboxamide] | < 500
8 | COc1cccc(C(=O)NC2CC3CCC(C2)N3c2ccc(C(=O)NC(C)c3ccc(C4CCNCC4)cc3F)cn2)c1C (stereo not drawn) [N-[1-(2-fluoro-4-piperidin-4-ylphenyl)ethyl]-6-[3-endo-({[2-methyl-3-(methyloxy)phenyl]carbonyl}amino)-8-azabicyclo[3.2.1]oct-8-yl]pyridine-3-carboxamide] | < 500
9 | CCC(CC)Nc1cc(C(=O)N[C@H]2C[C@H]3CC[C@@H](C2)N3c2ccc(C(=O)C3CC3)cn2)c(F)cc1C(N)=O [N-{8-[5-(cyclopropylcarbonyl)pyridin-2-yl]-8-azabicyclo[3.2.1]oct-3-endo-yl}-5-[(1-ethylpropyl)amino]-2-fluorobenzene-1,4-dicarboxamide] | < 500
10 | COc1cccc(C(=O)N[C@H]2C[C@H]3CC[C@@H](C2)N3c2ccc(C(=O)NCc3cccnc3)cn2)c1C [6-[3-endo-({[2-methyl-3-(methyloxy)phenyl]carbonyl}amino)-8-azabicyclo[3.2.1]oct-8-yl]-N-(pyridin-3-ylmethyl)pyridine-3-carboxamide] | < 500
11 | COc1cccc(C(=O)N[C@H]2C[C@H]3CC[C@@H](C2)N3c2ccc(C(=O)NCCCN3CCN(C)CC3)cn2)c1C [6-[3-endo-({[2-methyl-3-(methyloxy)phenyl]carbonyl}amino)-8-azabicyclo[3.2.1]oct-8-yl]-N-[3-(4-methylpiperazin-1-yl)propyl]pyridine-3-carboxamide] | 500 to 999
12 | COCCOc1cc(C(=O)N[C@H]2C[C@H]3CC[C@@H](C2)N3c2ccc(C(=O)C3CC3)cn2)c(C)cc1C(N)=O [N-{8-[5-(cyclopropylcarbonyl)pyridin-2-yl]-8-azabicyclo[3.2.1]oct-3-endo-yl}-2-methyl-5-{[2-(methyloxy)ethyl]oxy}benzene-1,4-dicarboxamide] | 500 to 999
13 | CCC(CC)Nc1cc(C(=O)N[C@H]2C[C@H]3CC[C@@H](C2)N3c2ccc(C(=O)CCC3CCN(C)CC3)cn2)c(C)cc1C(N)=O [5-[(1-ethylpropyl)amino]-2-methyl-N-(8-{5-[3-(1-methylpiperidin-4-yl)propanoyl]pyridin-2-yl}-8-azabicyclo[3.2.1]oct-3-endo-yl)benzene-1,4-dicarboxamide] | < 500

More lines, now with the values ahead:

Row | IC50 [nM] | SMILES
14 | < 500 | CC(=O)c1ccc(N2C3CCC2CC(NC(=O)c2ccc(C(N)=O)c(N[C@H]4CCOC4)c2)C3)nc1 (stereo partly drawn) [N4-[8-(5-acetylpyridin-2-yl)-8-azabicyclo[3.2.1]oct-3-endo-yl]-2-[(3S)-tetrahydrofuran-3-ylamino]benzene-1,4-dicarboxamide]
15 | < 500 | CCC(CC)Nc1cc(C(=O)N[C@H]2C[C@H]3CC[C@@H](C2)N3c2ccc(C(C)=O)cn2)ccc1C(N)=O [N4-[8-(5-acetylpyridin-2-yl)-8-azabicyclo[3.2.1]oct-3-endo-yl]-2-[(1-ethylpropyl)amino]benzene-1,4-dicarboxamide]
16 | < 500 | CC(=O)c1ccc(N2[C@@H]3CC[C@H]2C[C@@H](NC(=O)c2ccc(C(N)=O)c(NC4CCOC4)c2)C3)nc1 (stereo partly drawn) [N4-[8-(5-acetylpyridin-2-yl)-8-azabicyclo[3.2.1]oct-3-endo-yl]-2-(tetrahydrofuran-3-ylamino)benzene-1,4-dicarboxamide]
17 | 1000 to 2000 | NC(=O)c1ccc(C(=O)N[C@H]2C[C@H]3CC[C@@H](C2)N3c2ccc(C(=O)C3CC3)cn2)s1 [N-{8-[5-(cyclopropylcarbonyl)pyridin-2-yl]-8-azabicyclo[3.2.1]oct-3-endo-yl}thiophene-2.5-dicarboxamide]
18 | < 500 | CC(=O)c1ccc(N2[C@@H]3CC[C@H]2C[C@@H](NC(=O)c2ccc(C(N)=O)c(NC4CC4)c2)C3)nc1 [N4-[8-(5-acetylpyridin-2-yl)-8-azabicyclo[3.2.1]oct-3-endo-yl]-2-(cyclopropylamino)benzene-1,4-dicarboxamide]
19 | 500 to 999 | Cc1cc(C(=O)N[C@H]2C[C@H]3CC[C@@H](C2)N3c2ccc(C(=O)NC3CCN(C)CC3)cn2)c(C)cc1C(N)=O [2,5-dimethyl-N-[8-(5-{[(1-methylpiperidin-4-yl)amino]carbonyl}pyridin-2-yl)-8-azabicyclo[3.2.1]oct-3-endo-yl]benzene-1,4-dicarboxamide]
20 | < 500 | CCC(=O)c1ccc(N2[C@@H]3CC[C@H]2C[C@@H](NC(=O)c2ccc(C(N)=O)c(NCC4CC4)c2)C3)nc1 [2-[(cyclopropylmethyl)amino]-N4-[8-(5-propanoylpyridin-2-yl)-8-azabicyclo[3.2.1]oct-3-endo-yl]benzene-1,4-dicarboxamide]
21 | < 500 | CN(C)CCC(=O)c1ccc(N2[C@@H]3CC[C@H]2C[C@@H](NC(=O)c2ccc(C(N)=O)c(NCC4CC4)c2)C3)nc1 [2-[(cyclopropylmethyl)amino]-N4-{8-[5-(N,N-dimethyl-beta-alanyl)pyridin-2-yl]-8-azabicyclo[3.2.1]oct-3-endo-yl}benzene-1,4-dicarboxamide]
22 | < 500 | CCCNc1cc(C(=O)N[C@H]2C[C@H]3CC[C@@H](C2)N3c2ccc(C(=O)C3CC3)cn2)ccc1C(N)=O [N4-{8-[5-(cyclopropylcarbonyl)pyridin-2-yl]-8-azabicyclo[3.2.1]oct-3-endo-yl}-2-(propylamino)benzene-1,4-dicarboxamide]
